Each structure is given as a SMILES string.

The values that follow come from patent publication US7790896B2, “RNA-selective probes for live cell imaging of nuclear structure and function” (New York University, priority 2006, dated 2010).

One data set has as its system A549. Briefly: Phototoxicity test, MTS assay of irradiated cells. It counts as cell-based, human. Particulars: dye 5 μM, irradiated 5 minutes, 24 hours incubation. As for the experimental part:
Dye DMSO stock solutions were diluted by fresh medium into working concentration (5 μM). Cells were cultured in 96-well plate for 12 hours before experiments. The cell medium was exchanged with dye medium solutions. Cells were then incubated in at 37° C., in 5% CO2 for 25 minutes before being irradiated by fluorescent light using the appropriate working filter (FITC for E36 and E144; Cy3 for F22) for 5 minutes. The plates were then incubated at 37° C. in 5% CO2 The cell viability was measured by MTS assay after 5 and 24 hours following the cytotoxicity measurement procedure. Duplicated experiments have been tested.
Phototoxicity is also an important factor in evaluating applicability of new fluorescent probes for live cell imaging. […] Nevertheless, it is desirable for the new imaging probes to be as non-phototoxic as possible. To investigate the phototoxicity of the present RNA-selective compounds, cellular viability of irradiated cells using MTS assay was assessed. Cells were incubated with dyes (E36, E144, and F22) in their working concentration (5 μM), and then irradiated with the appropriate filters using the fluorescent microscope (FITC for E36 and E144; Cy3 for F22). While light exposures used for imaging experiments are generally a few seconds long at most, cells were irradiated for 5 minutes for prolonged toxicity measurement. […]
On the technique in general: Tetrazolium dyes change colour on reduction, which living cells bring about.

Data set [1] has as its system Hela, A549, 3T3, and 3T3-L1 cells. The experiment in a line: Dye cell-tolerability: cell viability and morphology changes observed. The format is cell-based, human, mouse. Particulars: 20 μM, after 8 hours. The method, then:
Low cytotoxicity is one of the most important criteria for live cell imaging probes. All four compounds were tested at 20 μM, 10 μM, 5 μM, and 1 μM in Hela, A549, 3T3, and 3T3-L1 cells. Cell viability and morphology changes were observed during 2, 8, and 24 hours. Only dye E36 was toxic to A549, 3T3, and 3T3-L1 cells at high concentration (20 μM) after 8 hours.

Data set [2] can be described thus: Fluorescence spectrum in TE buffer of dyes selected from live cell imaging. Particulars: dye 10 μM in TE buffer. It counts as physicochemical.

Regarding `COc1ccc2c(ccc(/C=C/c3ccc(N(C)C)cc3)[n+]2C)c1` [Dye F22], the Phototoxicity entry with A549 is given as “not A549”.

Consider `C[n+]1c(/C=C/c2c[nH]c3ccccc23)ccc2ccccc21` [Dye E36], for which the “Toxicity (cell viability and morphology changes)” value in data set [1] is listed as “toxic”. Moreover, in data set [2], the SPECTRUM EM amounted to 550 nm and the SPECTRUM EX was 450 nm.
